Reference: US6132944A, “Photographic element containing high dye-yield couplers” (Eastman Kodak Company, priority 1999, dated 2000)

Assay: not given
Settings: Table II; in water (Bordwell and Cooper); cited from earlier work

| Structure (SMILES) | pKa (Sol. group) |
| --- | --- |
| CS(=O)(=O)c1ccc(O)cc1 [Comp-7] | 7.8 |

Same assay, conditions: Table II; in water (King); cited from earlier work

| Structure (SMILES) | pKa (Sol. group) |
| --- | --- |
| CNS(=O)(=O)c1ccccc1 [Comp-18] | 11.43 |

Assay: pKa by spectrophotometric titration in aqueous Triton X-100
Format: physicochemical
Settings: Example 2
Description: In the following examples, the pKa values were determined by standard procedures using spectrophotometric titration of the compounds of interest. The spectrophotometric technique involves measuring the absorption spectra of the compound of interest in a range of buffer solutions. The absorption data (optical densities, ODobsd) can then be used to determine the corresponding pKa value(s) according to eq 1-3
ODobsd=ODHnA +ODHn-1A + (1)
=b[HnA]εHnA +b[Hn-1A]εHn-1A (2)
=b[total]fHnA εHnA +b[total]fHn-1A
Typically, the experimental constants (b and [total]) are combined with the extinction coefficient (ε) and expressed as the maximum optical density (ODmax) for a given species. Eq 3 then becomes,
=ODmaxHnA fHnA +ODmaxHn-1A fHn-1A (4)
The fraction of a given species (f) is a function of the pH and pKa values.
For example, for a system with one titratable proton eq 5-6,
Thus, the pKa and ODmax values can be determined from a set of XY pair data (pH, ODobsd) using a non linear least squares fit.
This technique relies on a difference in extinction coefficient between the species of interest at a given wavelength. This can be seen by inspection as a change in the absorption spectrum over a given pH range. In addition to this macroscopic data, (the experimental pKa values), the spectrophotometric technique can also provide microscopic information, i.e., information about the relationship between the individual titratable groups and the pKa values. In this manner, a pKa value may be attributed to titration of a particular group in a molecule, e.g., a solubilizing group.
The absorption spectra over a range of pH values and pKa values for the model sulfonamides such as Comp-11 and Comp-8 (defined for the examples hereinafter) as well as the coupler Comp-12 may be plotted. In model sulfonamide Comp-11 (pK 6.65), the optical density change resulting from ionization of the sulfonamide which is in conjugation with the naphthalene group may be pinpointed. Model sulfonamide Comp-8 comprises the entire solubilizing group pK1 7.03, pK2 10.00). […] Finally, in the spectrophotometric titration of the coupler Comp-12, the ionization of both sulfonamides in the solubilizing group as well as ionization of the coupling site pK1 6.85, pK2 9.85, pK3 10.84) can be seen.
In practice, a stock solution of the appropriate compound (1×10^-4 M) and Triton X-100 (1.2%) in water was prepared. The Triton X-100 (CAS Registry No. [9002-93-1], polyoxyethylene(10) isooctylcyclohexyl ether) was obtained from Aldrich Chemical Co. and used as received.
To 1.50 mL of the appropriate phosphate buffer (μ=0.75) were added 1.50 mL of the stock solution. The solution was agitated to ensure adequate mixing, and its absorption spectrum and pH were measured. A non linear least squares method was then used to fit the data to a one, two, or three pKa value model as appropriate.

| Structure (SMILES) | pKa at the coupling site |
| --- | --- |
| COc1ccccc1NC(=O)CC(=O)c1cccc(NS(=O)(=O)c2ccc(C)cc2)c1 [Comp-10] | 10.3 |

Same assay, conditions: Table I; inferred from Comp-5 and Comp-6

| Structure (SMILES) | pKa |
| --- | --- |
| CCCN(C(=O)OC(C(=O)Nc1ccccc1OC)C(=O)c1cccc(NS(=O)(=O)c2ccc(C)cc2)c1)c1ccc(C=C(C#N)c2nc3c(C)cc(C)cc3s2)c(C)c1 (stereo not drawn) [Comp-4] | 8.8 |

Same assay, conditions: Table I; sol group; aqueous Triton X-100

| Structure (SMILES) | pKa |
| --- | --- |
| CCCCCCCCCCCCCCCCS(=O)(=O)Nc1ccc(Cl)c(NC(=O)C(OC(=O)N(CC)c2ccc(N=Nc3ccc(C(=O)OCCCCCCCCCCCC)cc3)cc2)C(=O)C(C)(C)C)c1 (stereo not drawn) [Comp-1] | 9.5 |
| CCCCCCCCCCCCCCCCNS(=O)(=O)c1ccc(Cl)c(NC(=O)C(OC(=O)N(CCCC)c2ccc(C=C(C#N)c3nc4ccccc4o3)c(C)c2)C(=O)c2ccc(OC)cc2)c1 (stereo not drawn) [Comp-2] | 13 |
| CCCCCCCCCCCCCCCCNS(=O)(=O)c1ccc(Cl)c(NC(=O)C(OC(=O)N(CCCCCCCCCCCC)c2ccc(C=C(C#N)c3nc4ccccc4o3)c(C)c2)C(=O)c2ccc(OC)cc2)c1 (stereo not drawn) [Comp-3] | 13 |
| CCCCCCCN(C(=O)OC(C(=O)Nc1ccccc1OC)C(=O)c1cccc(NS(=O)(=O)c2ccc(C)cc2)c1)c1ccc(C=C(C#N)c2nc3ccc(C)cc3o2)c(C)c1 (stereo not drawn) [Comp-5] | 8.8 |
| CCCCN(C(=O)OC(C(=O)Nc1ccccc1OC)C(=O)c1cccc(NS(=O)(=O)c2ccc(C)cc2)c1)c1ccc(C=C(C#N)c2nc3cc(C(C)(C)CC(C)(C)C)ccc3o2)c(C)c1 (stereo not drawn) [Comp-6] | 8.9 |

Further lines, results first:

| pKa | Structure (SMILES) |
| --- | --- |
| 8.8 | Cc1cc(N(C(=O)OC(C(=O)Nc2cc(NS(=O)(=O)c3ccc(O)cc3)ccc2Cl)C(=O)C(C)(C)C)C2CCCC2)ccc1C=C(C#N)c1nc2cc(C(C)(C)CC(C)(C)C)ccc2o1 (stereo not drawn) [Comp-21] |
| 7.2 | Cc1cc(N(C(=O)OC(C(=O)Nc2cc(NS(=O)(=O)c3ccc(O)c(NS(C)(=O)=O)c3)ccc2Cl)C(=O)C(C)(C)C)C2CCCC2)ccc1C=C(C#N)c1nc2cc(C(C)(C)CC(C)(C)C)ccc2o1 (stereo not drawn) [Inv-1] |
| 8.7 | COc1ccc(C(=O)C(OC(=O)N(c2ccc(C=C(C#N)c3nc4cc(C(C)(C)CC(C)(C)C)ccc4o3)c(C)c2)C2CCCC2)C(=O)Nc2cc(NS(=O)(=O)c3ccc(O)cc3)ccc2Cl)cc1 (stereo not drawn) [Inv-3] |
| 6.5 | CCN(C(=O)OC(C(=O)Nc1cc(NS(=O)(=O)c2c(NS(C)(=O)=O)ccc3ccccc23)ccc1Cl)C(=O)c1ccc(OC)cc1)c1ccc(C=C(C#N)c2nc3cc(C(C)(C)CC(C)(C)C)ccc3o2)c(C)c1 (stereo not drawn) [Inv-4] |
| 6.7 | CCN(C(=O)OC(C(=O)Nc1cc(NS(=O)(=O)c2ccc(NS(C)(=O)=O)c3ccccc23)ccc1Cl)C(=O)c1ccc(OC)cc1)c1ccc(C=C(C#N)c2nc3cc(C(C)(C)CC(C)(C)C)ccc3o2)c(C)c1 (stereo not drawn) [Inv-5] |
| 7.4 | Cc1cc(N(C(=O)OC(C(=O)Nc2cc(NS(=O)(=O)c3ccc(NS(C)(=O)=O)cc3O)ccc2Cl)C(=O)C(C)(C)C)C2CCCC2)ccc1C=C(C#N)c1nc2cc(C(C)(C)CC(C)(C)C)ccc2o1 (stereo not drawn) [Inv-6] |
| 7.9 | CCN(C(=O)OC(C(=O)Nc1cc(NS(=O)(=O)c2ccc(NS(C)(=O)=O)cc2)ccc1Cl)C(=O)c1ccc(OC)cc1)c1ccc(C=C(C#N)c2nc3cc(C(C)(C)CC(C)(C)C)ccc3o2)c(C)c1 (stereo not drawn) [Inv-7] |
| 6.1 | CCN(C(=O)OC(C(=O)Nc1cc(NS(=O)(=O)c2ccccc2NS(C)(=O)=O)ccc1Cl)C(=O)c1ccc(OC)cc1)c1ccc(C=C(C#N)c2nc3cc(C(C)(C)CC(C)(C)C)ccc3o2)c(C)c1 (stereo not drawn) [Inv-8] |
| 7.9 | Cc1cc(N(C(=O)OC(C(=O)Nc2cc(NS(=O)(=O)c3cccc(NS(C)(=O)=O)c3)ccc2Cl)C(=O)C(C)(C)C)C2CCCC2)ccc1C=C(C#N)c1nc2cc(C(C)(C)CC(C)(C)C)ccc2o1 (stereo not drawn) [Inv-9] |
| 6.1 | COc1ccc(C(=O)C(OC(=O)N(c2ccc(C=C(C#N)c3nc4cc(C(C)(C)CC(C)(C)C)ccc4o3)c(C)c2)C2CCCC2)C(=O)Nc2cc(NS(=O)(=O)c3ccccc3NS(C)(=O)=O)ccc2Cl)cc1 (stereo not drawn) [Inv-10] |

Same assay, conditions: Table II; aqueous Triton X-100

| Structure (SMILES) | pKa (Sol. group) |
| --- | --- |
| CC(=O)c1cccc(NS(=O)(=O)c2ccc(C)cc2)c1 [Comp-9] | 8.7 |
| COc1ccccc1NC(=O)CC(=O)c1cccc(NS(=O)(=O)c2ccc(C)cc2)c1 [Comp-10] | 8.8 |
| CN(C)S(=O)(=O)c1ccc(NS(C)(=O)=O)c2ccccc12 [Comp-11] | 6.6 |
| CC(C)(C)C(=O)CC(=O)Nc1cc(NS(=O)(=O)c2ccc(NS(C)(=O)=O)c3ccccc23)ccc1Cl [Comp-12] | 6.8 |
| CCCCCCCCCCCCCCCCS(=O)(=O)Nc1ccc(Cl)c(NC(=O)CC(=O)C(C)(C)C)c1 [Comp-16] | 9.4 |
| CCCCCCCCCCCCCCCCS(=O)(=O)Nc1ccc(Cl)c(NC(C)=O)c1 [Comp-17] | 9.5 |
| CCCCCCCCCCCCCCCCNS(=O)(=O)c1ccccc1 [Comp-19] | 13.0 |
| CC(=O)Nc1cc(NS(=O)(=O)c2ccc(O)cc2)ccc1Cl [Comp-20] | 8.1 |

Same assay, conditions: first ionization, sulfonamide in conjugation with naphthalene

| Structure (SMILES) | pK1 |
| --- | --- |
| CS(=O)(=O)Nc1ccc(S(=O)(=O)Nc2ccc(Cl)cc2)c2ccccc12 [Comp-8] | 7.03 |
| CC(C)(C)C(=O)CC(=O)Nc1cc(NS(=O)(=O)c2ccc(NS(C)(=O)=O)c3ccccc23)ccc1Cl [Comp-12] | 6.85 |

Same assay, conditions: second sulfonamide (in conjugation with the phenyl ring)

| Structure (SMILES) | pK2 |
| --- | --- |
| CS(=O)(=O)Nc1ccc(S(=O)(=O)Nc2ccc(Cl)cc2)c2ccccc12 [Comp-8] | 10.00 |
| CC(C)(C)C(=O)CC(=O)Nc1cc(NS(=O)(=O)c2ccc(NS(C)(=O)=O)c3ccccc23)ccc1Cl [Comp-12] | 9.85 |

Same assay, conditions: sulfonamide in conjugation with the naphthalene group

| Structure (SMILES) | pK |
| --- | --- |
| CN(C)S(=O)(=O)c1ccc(NS(C)(=O)=O)c2ccccc12 [Comp-11] | 6.65 |

Same assay, conditions: third ionization

| Structure (SMILES) | pK3 |
| --- | --- |
| CC(C)(C)C(=O)CC(=O)Nc1cc(NS(=O)(=O)c2ccc(NS(C)(=O)=O)c3ccccc23)ccc1Cl [Comp-12] | 10.84 |
